From patent US9028463B2 (priority 2008, dated 2015)

Assays:
[1] = test system: type A strain (H1N1); set-up: species or system ddY mice; details: mouse, in vivo
[2] = test system: type B strain; set-up: species or system ddY mice; details: mouse, in vivo

Structure (SMILES): CCCCCCCCCCCCO [lauryl alcohol]
- HI antibody titer for type A with lauryl alcohol as adjuvant in combination [1]: HI antibody titer for type A increased
- HI antibody titer for type B with lauryl alcohol as adjuvant in combination [2]: remarkable effect was exerted on type B
